In publication PMC10590056, “Design and synthesis of cabotegravir derivatives bearing 1,2,3-triazole and evaluation of anti-liver cancer activity” (Frontiers in Pharmacology, 2023):
Where “and” joins values, the source holds several entries; their conditions need not be identical. Identical values can stand only once. Like-named read-outs stand apart in the source and are kept apart here.

Key:
Type in all cases: cell-based
HepG2 cells [1] = test: MTT assay for cell proliferation and cytotoxicity, HepG2; set-up: key to Inhibitory rate: inhibition rate = 1 - mean A490 sample/mean A490 control (fraction)
How it was run: (§1)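 Cells grown in DMEM with 10% FBS at 37 °C, 5% CO2, seeded at 10^5 cells/mL and exposed to KJ-5 or KJ-12 at 0–32 μM for 48 h. MTT added for 4 h, formazan dissolved in DMSO, A490 read; inhibition = (1 − sample/control A490) × 100%.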

MCF-7 cells = test: MTT assay for cell proliferation, MCF-7; set-up: key to Inhibitory rate / Inhibition rate: inhibition rate = 1 - mean A490 sample/mean A490 control (fraction)
How it was run: as §1

KYSE-30 cells = test: MTT assay for cell proliferation, KYSE-30; set-up: key to Inhibitory rate: inhibition rate = 1 - mean A490 sample/mean A490 control (fraction)
How it was run: as §1

HepG2 cells [2] = test: DAPI staining for cell apoptosis (morphology); settings: HepG2, 2, 4, 8 μM, 24 h
Experimental: Apoptotic morphological changes were determined by DAPI staining. HepG2 cells were seeded in a 48-well plate and treated with different concentrations of KJ-5 and KJ-12 (2, 4, and 8 μM) for 24 h. After 24 h, they were then washed with PBS and fixed with 4% paraformaldehyde for 20 min. Subsequently, they were then washed with PBS and treated with DAPI (10 μg/mL) at 37°C for 5 min. After washing with PBS, the cells were resuspended in PBS for the rest of the experiment. A fluorescence microscope was used to observe the apoptotic morphological changes.

HepG2 cells [3] = test: Transwell migration assay (without Matrigel); settings: HepG2, 24 h treatment, vs control
Experimental: HepG2 cells were treated with either KJ-5 or KJ-12 for 24 h. Then, the cells were suspended and seeded into the upper chamber of a 24-well Transwell plate (Corning Inc., United States) in serum-free medium. The cells were cultured for 24 h at 37°C; a medium containing 20% FBS as a chemoattractant was added to the lower chamber. HepG2 cells that had invaded through the membrane were fixed with 4% paraformaldehyde for 20 min and stained with 0.1% crystal violet. Five random fields were then imaged and quantified using an inverted fluorescence microscope (Axio Observer3, Germany). To assess invasion, transwell assays were performed in a similar manner, with the exception of coating the upper chamber of the Transwell with 100 μL of diluted Matrigel solution per well.

[4] = tested on: Bcl-2, Bax, cleaved caspase-9, cleaved caspase-3, cleaved PARP in HepG2 cells; test: Western blot of mitochondrial apoptotic proteins
Experimental: After being pretreated with either KJ-5 or KJ-12 at concentrations of 2, 4, or 8 μM for 24 h, the cells were harvested and lysed using an ice-cold cell lysis buffer from Beyotime Biotechnology (Shanghai, China). The proteins were mixed with a loading buffer and denatured by heating at 95°C–100°C for 5–10 min. Equal amounts of protein were loaded onto a 10% SDS-PAGE gel along with a molecular weight marker and separated by electrophoresis for 2 h. The separated proteins were transferred onto a PVDF membrane, which was blocked with 5% non-fat milk for non-specific binding sites on the membrane. Then, the membrane was incubated with primary antibodies at 4°C overnight. Following incubation with the primary antibody, the membrane was incubated with HRP-conjugated goat anti-rabbit or goat anti-mouse IgG at 37°C for 1 h. Protein bands were visualized on the PVDF membrane using an ECL hypersensitive chemiluminescence solution and a Bio-Rad gel imaging and analysis system.

[5] = HepG2, fraction, per experiment
[6] = MCF-7, fraction, per experiment

Q: For `COc1c2n(cc(C(=O)Nc3cccc(-c4cn(-c5cc(C(F)(F)F)cc(C(F)(F)F)c5)nn4)c3)c1=O)C[C@H]1OC[C@H](C)N1C2=O` [KJ-5], which Inhibitory rate (HepG2 cells [1]; [5]) is on record?
A: Its Inhibitory rate is 0.8445 and 0.8592 and 0.8525.

Q: And the ODtreated/ODcontrol (HepG2 cells [1]; [5])?
A: The ODtreated/ODcontrol was 0.1555 and 0.1408 and 0.1475.

Q: What about the inhibition at 4 µM (HepG2 cells [1]; Homo sapiens, HepG2, liver cancer cells, 4 μM, read-out: Inhibition rate on liver cancer cells) of the same compound?
A: Its inhibition at 4 µM is ~50%.

Q: What about the IC50 (HepG2 cells [1]; Homo sapiens, HepG2, 48 h, MTT) of the same compound?
A: The IC50 was 4.29 ± 0.1 µM.

Q: And the inhibition at 16 µM (HepG2 cells [1]; Homo sapiens, preliminary screening, HepG2, 16 μM, 48 h, mean±SD, unit inferred, read-out: Inhibition rate (16μM), 48 h, HepG2)?
A: The inhibition at 16 µM was 85.21 ± 0.73%.

Q: And the IC50 (MCF-7 cells; Homo sapiens, MCF7, 48 h, MCF-7, 48 h, MTT, read-out: IC50 MCF-7)?
A: The IC50 was 8.41 ± 0.14 µM.

Q: What about the IC50 (MCF-7 cells; Homo sapiens, MCF7, MCF-7, one of three experiments, unit inferred, read-out: IC50, single experiment, MCF-7) of the same compound?
A: Its IC50 is 8.56 µM.

Q: And the inhibition at 16 µM (MCF-7 cells; Homo sapiens, MCF7, preliminary screening, MCF-7, 16 μM, 48 h, mean±SD, unit inferred, read-out: Inhibition rate (16μM), 48 h, MCF-7)?
A: Its inhibition at 16 µM is 62.6 ± 1.76%.

Q: What about the Inhibitory rate (MCF-7 cells; MCF-7, group 1 (concentration), fraction, single experiments) of the same compound?
A: The Inhibitory rate was 0.147 and 0.1313 and 0.1401.

Q: And the ODtreated/ODcontrol (MCF-7 cells; MCF-7, group 1 (concentration), single experiments)?
A: The ODtreated/ODcontrol was 0.853 and 0.8687 and 0.8599.

Q: And the Inhibitory rate (MCF-7 cells; MCF-7, group 2 (concentration), fraction, single experiments)?
A: Its Inhibitory rate is 0.1769 and 0.1986 and 0.2186.

Q: What about the ODtreated/ODcontrol (MCF-7 cells; MCF-7, group 2 (concentration), single experiments) of the same compound?
A: Its ODtreated/ODcontrol is 0.8231 and 0.8014 and 0.7814.

Q: And the Inhibitory rate (MCF-7 cells; MCF-7, group 4 (concentration), fraction, single experiments)?
A: The Inhibitory rate was 0.4303 and 0.4175 and 0.4002.

Q: What about the ODtreated/ODcontrol (MCF-7 cells; MCF-7, group 4 (concentration), single experiments) of the same compound?
A: The ODtreated/ODcontrol was 0.5697 and 0.5825 and 0.5998.

Q: And the Inhibitory rate (MCF-7 cells; MCF-7, group 8 (concentration), fraction, single experiments)?
A: Its Inhibitory rate is 0.509 and 0.5265 and 0.5019.

Q: What about the ODtreated/ODcontrol (MCF-7 cells; MCF-7, group 8 (concentration), single experiments) of the same compound?
A: The ODtreated/ODcontrol was 0.491 and 0.4735 and 0.4981.

Q: And the Inhibitory rate (MCF-7 cells; MCF-7, group 16 (concentration), fraction, single experiments)?
A: Its Inhibitory rate is 0.5958 and 0.5893 and 0.6098.

Q: And the ODtreated/ODcontrol (MCF-7 cells; MCF-7, group 16 (concentration), single experiments)?
A: Its ODtreated/ODcontrol is 0.4042 and 0.4107 and 0.3902.

Q: What about the Inhibitory rate (MCF-7 cells; MCF-7, group 32 (concentration), fraction, single experiments) of the same compound?
A: Its Inhibitory rate is 0.7196 and 0.7385 and 0.7334.

Q: What about the ODtreated/ODcontrol (MCF-7 cells; MCF-7, group 32 (concentration), single experiments) of the same compound?
A: The ODtreated/ODcontrol was 0.2804 and 0.2615 and 0.2666.

Q: And the IC50 (MCF-7 cells; MCF-7, one of three experiments, unit inferred, read-out: IC50, single experiment, MCF-7)?
A: The IC50 was 8.29 µM and 8.37 µM.

Q: And the Inhibitory rate (MCF-7 cells; [6])?
A: Its Inhibitory rate is 0.6368.

Q: What about the ODtreated/ODcontrol (MCF-7 cells; [6]) of the same compound?
A: The ODtreated/ODcontrol was 0.3632.

Q: And the Inhibitory rate (MCF-7 cells; given as fraction, second of three experiments)?
A: Its Inhibitory rate is 0.6364.

Q: And the Inhibition rate (MCF-7 cells; given as fraction, third of three experiments)?
A: The Inhibition rate was 0.6061.

Q: What about the ODtreated/ODcontrol (MCF-7 cells; second of three experiments) of the same compound?
A: Its ODtreated/ODcontrol is 0.3635.

Q: What about the ODtreated/ODcontrol (MCF-7 cells; third of three experiments) of the same compound?
A: The ODtreated/ODcontrol was 0.3939.

Q: What about the IC50 (KYSE-30 cells; Homo sapiens, KYSE-30, 48 h, MTT, read-out: IC50 KYSE-30) of the same compound?
A: Its IC50 is 8.51 ± 0.43 µM.

Q: And the IC50 (KYSE-30 cells; Homo sapiens, KYSE-30, KYSE-30, one of three experiments, unit inferred, read-out: IC50, single experiment, KYSE-30)?
A: The IC50 was 8.96 µM.

Q: And the inhibition at 16 µM (KYSE-30 cells; Homo sapiens, preliminary screening, KYSE-30, 16 μM, 48 h, mean±SD, unit inferred, read-out: Inhibition rate (16μM), 48 h, KYSE-30)?
A: Its inhibition at 16 µM is 65.7 ± 0.91%.

Q: What about the ODtreated/ODcontrol (KYSE-30 cells; KYSE-30, first of three experiments) of the same compound?
A: Its ODtreated/ODcontrol is 0.346.

Q: And the Inhibitory rate (KYSE-30 cells; KYSE-30, given as fraction, first of three experiments)?
A: The Inhibitory rate was 0.654.

Q: What about the Inhibitory rate (KYSE-30 cells; KYSE-30, given as fraction, second of three experiments) of the same compound?
A: The Inhibitory rate was 0.6669.

Q: What about the Inhibitory rate (KYSE-30 cells; KYSE-30, given as fraction, third of three experiments) of the same compound?
A: Its Inhibitory rate is 0.6494.

Q: What about the Inhibitory rate (KYSE-30 cells; KYSE-30, group 1 (concentration), fraction, single experiments) of the same compound?
A: The Inhibitory rate was 0.1205 and 0.156 and 0.08655.

Q: And the ODtreated/ODcontrol (KYSE-30 cells; KYSE-30, group 1 (concentration), single experiments)?
A: Its ODtreated/ODcontrol is 0.8795 and 0.844 and 0.9135.

Q: And the Inhibitory rate (KYSE-30 cells; KYSE-30, group 2 (concentration), fraction, single experiments)?
A: Its Inhibitory rate is 0.2874 and 0.3093 and 0.2896.

Q: What about the ODtreated/ODcontrol (KYSE-30 cells; KYSE-30, group 2 (concentration), single experiments) of the same compound?
A: Its ODtreated/ODcontrol is 0.7126 and 0.6907 and 0.7104.

Q: What about the Inhibitory rate (KYSE-30 cells; KYSE-30, group 4 (concentration), fraction, single experiments) of the same compound?
A: The Inhibitory rate was 0.3928 and 0.4106 and 0.3851.

Q: And the ODtreated/ODcontrol (KYSE-30 cells; KYSE-30, group 4 (concentration), single experiments)?
A: The ODtreated/ODcontrol was 0.6072 and 0.5895 and 0.6149.

Q: What about the Inhibitory rate (KYSE-30 cells; KYSE-30, group 8 (concentration), fraction, single experiments) of the same compound?
A: The Inhibitory rate was 0.503 and 0.5061 and 0.5028.

Q: What about the ODtreated/ODcontrol (KYSE-30 cells; KYSE-30, group 8 (concentration), single experiments) of the same compound?
A: Its ODtreated/ODcontrol is 0.497 and 0.4939 and 0.4972.

Q: What about the Inhibitory rate (KYSE-30 cells; KYSE-30, group 16 (concentration), fraction, single experiments) of the same compound?
A: The Inhibitory rate was 0.6001 and 0.6158 and 0.6257.

Q: What about the ODtreated/ODcontrol (KYSE-30 cells; KYSE-30, group 16 (concentration), single experiments) of the same compound?
A: Its ODtreated/ODcontrol is 0.3999 and 0.3842 and 0.3743.

Q: And the Inhibitory rate (KYSE-30 cells; KYSE-30, group 32 (concentration), fraction, single experiments)?
A: The Inhibitory rate was 0.6693 and 0.6807 and 0.6972.

Q: What about the ODtreated/ODcontrol (KYSE-30 cells; KYSE-30, group 32 (concentration), single experiments) of the same compound?
A: Its ODtreated/ODcontrol is 0.3307 and 0.3193 and 0.3028.

Q: What about the IC50 (KYSE-30 cells; KYSE-30, one of three experiments, unit inferred, read-out: IC50, single experiment, KYSE-30) of the same compound?
A: The IC50 was 8.11 µM and 8.46 µM.

Q: And the ODtreated/ODcontrol (KYSE-30 cells; KYSE-30, second of three experiments)?
A: The ODtreated/ODcontrol was 0.3331.

Q: What about the ODtreated/ODcontrol (KYSE-30 cells; KYSE-30, third of three experiments) of the same compound?
A: Its ODtreated/ODcontrol is 0.3506.

Q: And the “Apoptotic morphological changes, DAPI staining” value (HepG2 cells [2])?
A: The value was “cell shrinkage, nuclear condensation, and chromatin fragmentation”.

Q: What about the “Migration of HepG2 cells (transwell without Matrigel)” value (HepG2 cells [3]) of the same compound?
A: The value was “significantly impaired”.

Q: What about the Bax levels ([4]; HepG2, 2, 4 or 8 μM, 24 h) of the same compound?
A: Its Bax levels is “increased”.

Q: And the Bax/Bcl-2 ratio ([4]; HepG2, 2, 4 or 8 μM, 24 h)?
A: The Bax/Bcl-2 ratio was “increased”.

Q: And the Bcl-2 protein levels ([4]; HepG2, 2, 4 or 8 μM, 24 h)?
A: The Bcl-2 protein levels was “decreased”.

Q: What about the “Expression of cleaved PARP” value ([4]; HepG2, vs control) of the same compound?
A: The value was “significantly increased”.

Q: And the “Expression of cleaved caspase-3” value ([4]; HepG2, vs control)?
A: The value was “significantly increased”.

Q: And the “Expression of cleaved caspase-9” value ([4]; HepG2, vs control)?
A: Its value is “significantly increased”.
